Measurements as given in patent US5523303A, “Trisubstituted cycloalkane derivatives and process for the preparation thereof” (Egis Gyogyszergyar Rt., priority 1993, dated 1996).
Where two headings read alike, the source gives them in different places.

Tests used:
[1] = Acute toxicity on mice (method of Lichtfield and Wilcoxon), LD50; conditions: mouse, in vivo, po, 14 days observation
Description: The test was carried out according to the method of Lichtfield and Wilcoxon [Lichtfield, J. T. and Wilcoxon, F. W.: J. Pharmacol. Exp. Ther., 96, 99 (1949)] by using white mice belonging to the CFLP strain and weighing 10 to 22 g, 10 animals per dose. The test compounds were administered orally in a volume of 20 cm3 /kg.

[2] = molecular target: T1, H^+ K^+ -ATP-ase (Sus scrofa, UniProt P19156); assay: H+/K+-ATP-ase inhibition on partially purified pig's microsome specimen (method of Rabon and Sachs); type: biochemical
T1 construct: on partially purified pig's microsome specimen; from tissue; host or cells: pig stomach, partially purified microsomes
T1 sequence (P19156 2-1034 limits assumed): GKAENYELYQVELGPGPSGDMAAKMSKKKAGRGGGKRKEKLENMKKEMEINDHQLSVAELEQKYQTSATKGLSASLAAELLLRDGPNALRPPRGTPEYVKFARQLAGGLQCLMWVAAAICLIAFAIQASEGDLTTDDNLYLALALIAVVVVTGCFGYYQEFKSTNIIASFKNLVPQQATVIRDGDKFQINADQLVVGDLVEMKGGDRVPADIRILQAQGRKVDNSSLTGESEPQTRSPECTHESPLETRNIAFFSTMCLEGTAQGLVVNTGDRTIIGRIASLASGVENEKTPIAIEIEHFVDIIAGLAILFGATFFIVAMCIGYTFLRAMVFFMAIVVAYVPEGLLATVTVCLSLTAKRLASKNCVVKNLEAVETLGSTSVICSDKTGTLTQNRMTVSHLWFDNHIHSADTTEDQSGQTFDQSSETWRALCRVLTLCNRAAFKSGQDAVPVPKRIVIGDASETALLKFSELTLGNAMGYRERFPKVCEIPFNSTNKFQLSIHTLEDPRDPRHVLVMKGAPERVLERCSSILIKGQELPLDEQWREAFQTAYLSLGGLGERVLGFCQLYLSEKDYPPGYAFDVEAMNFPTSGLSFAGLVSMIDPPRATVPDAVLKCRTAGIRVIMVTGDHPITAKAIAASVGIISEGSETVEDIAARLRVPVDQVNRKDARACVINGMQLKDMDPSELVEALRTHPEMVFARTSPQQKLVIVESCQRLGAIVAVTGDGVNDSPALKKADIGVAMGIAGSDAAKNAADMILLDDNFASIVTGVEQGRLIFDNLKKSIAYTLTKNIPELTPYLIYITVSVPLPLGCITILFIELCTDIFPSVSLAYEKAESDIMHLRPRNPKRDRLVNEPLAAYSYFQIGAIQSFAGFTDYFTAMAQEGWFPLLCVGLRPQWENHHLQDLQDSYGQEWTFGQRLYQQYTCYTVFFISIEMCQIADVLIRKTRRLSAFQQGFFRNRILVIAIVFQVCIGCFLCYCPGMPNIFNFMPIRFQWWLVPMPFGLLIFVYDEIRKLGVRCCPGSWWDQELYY
T1 sequence (P18434 whole entry partner): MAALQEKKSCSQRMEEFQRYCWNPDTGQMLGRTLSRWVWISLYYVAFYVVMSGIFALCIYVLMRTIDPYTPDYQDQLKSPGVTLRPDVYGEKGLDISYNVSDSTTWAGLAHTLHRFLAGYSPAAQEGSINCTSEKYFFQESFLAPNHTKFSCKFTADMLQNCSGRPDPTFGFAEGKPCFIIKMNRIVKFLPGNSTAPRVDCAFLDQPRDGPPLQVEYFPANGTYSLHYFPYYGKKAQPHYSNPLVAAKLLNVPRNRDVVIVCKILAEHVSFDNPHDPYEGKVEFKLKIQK
Description: 1. H^+ /K^+ -ATP-ase inhibition on pig'stomach. The test was carried out according to the method of Rabon and Sachs [E. C. Rabon, W. B. I. and G. Sachs: Preparation of gastric H^+ /K^+ -ATP-ase. Methods in Enzymology, 157, 649-651 (1988)]. The activity of the prepared enzyme was measured both in the presence and in the absence of K^+ ions. The difference in the liberation of phosphorus representing the activity of the enzyme was measured.

[3] = tested on: gastric-acid-secretion; assay: Gastric-acid-secretion inhibition on rats (method of Shay et al.); type: in vivo; conditions: Rattus norvegicus, po, read-out: Acid-secretion inhibition, ED50
Description: 2. […] The liberated gastric acid content was determined by titration 4 hours after the ligature of the duodenum.

[4] = Acute toxicity on mice (method of Lichtfield and Wilcoxon), LD50; conditions: mouse, in vivo, ip, 14 days observation
[5] = tested on: erosion of the stomach wall; assay: Cytoprotective effect: inhibition of ethanol-induced erosion of the stomach wall on rats (method of Robert); type: in vivo; conditions: for ED50: Rattus norvegicus, po; for Ratio of acid-secretion inhibition and erosion inhibition: ratio of the ED50 values
Description: 3. The cytoprotective effect was determined on rats according to the method of Robert [Robert, A.: Cytoprotection by prostaglandins. […] Rats weighing 200 to 250 g were used as test animals. 1 cm^3 of abs. ethanol was introduced to the stomach to produce an erosion of the stomach wall. The length and frequency of the lesions (erosion index and frequency) were measured and the percentage inhibition of lesion formation compared with vehicle-treated animals was calculated.

[6] = tested on: beta-adrenergic; conditions: prior art; cited from earlier work
[7] = tested on: lipid level; conditions: prior art; cited from earlier work
[8] = prior art; cited from earlier work
[9] = rats, p.o., 4 hours after ligature

| Molecule | LD50 at 336 h [1] [mg/kg] | IC50 [2] [µM] | ED50 [3, 9] [mg/kg] | LD50 at 336 h [4] [mg/kg] | ED50 ([5]; abs. ethanol) [mg/kg] | Ratio of acid-secretion inhibition and erosion inhibition ([5]; p.o.) | other results |
| --- | --- | --- | --- | --- | --- | --- | --- |
| CC(CO/N=C1/C(=C/c2ccc(F)cc2)CCCC1C)CN(C)C (racemic) [Example 9, (R,S)-6-(E)-(4-Fluorophenylmethylene)-2-methyl-1-(E)-[3-(dimethylamino)-2-methylpropoxyimino]-cyclohexane] | 600 | > 30 | 30 to 120 | ~300 | 1.2 | 25-100 | – |
| CCCCCC1CCCC(=C\c2ccc(F)cc2)/C1=N/OCCN1CCN(Cc2ccccc2)CC1 (racemic) [Example 31, (R,S)-6-(E)-(4-Fluorophenylmethylene)-2-pentyl-1-(E)-[2-(4-phenylmethyl-1-piperazinyl)-ethoxyimino]-cyclohexane] | > 1000 | > 30 | 200 | > 300 | 3.9 | 50 | – |
| CCCCCCC1CCCC(=C\c2ccccc2OC)/C1=N/OCCN(CC)CC (racemic) [Example 34, (R,S)-6-(E)-(2-Methoxyphenylmethylene)-2-hexyl-1-(E)-[2-(diethylamino)-ethoxyimino]-cyclohexane] | ~1000 | 5 | 103 | 88 | 1.4 | 73.4 | – |
| CCCCCCCC1CCCC(=C\c2ccc(F)cc2)/C1=N/OCCN(C)C (racemic) [Example 35, (R,S)-6-(E)-(4-Fluorophenylmethylene)-2-heptyl-1-(E)-[2-(dimethylamino)-ethoxyimino]-cyclohexane] | > 1000 | – | < 200 | 100 to 300 | 2.9 | ≤ 70 | – |
| CCCC1CCCCC(=C\c2ccc(Cl)cc2)/C1=N/OCCN(CC)CC (racemic) [Example 40, (R,S)-7-(E)-(4-Chlorophenylmethylene)-2-propyl-1-(E)-[2-(diethylamino)-ethoxyimino]-cycloheptane] | > 1000 | 7 | 52.9 | 100 to 300 | 2.6 | 20 | – |
| CCN(CC)CCO/N=C1/C(=C/c2ccc(Cl)c(Cl)c2)CCCC1C (racemic) [Example 41, (R,S)-6-(E)-(3,4-Dichlorophenylmethylene)-2-methyl-1-(E)-[2-(diethylamino)-ethoxyimino]-cyclohexane] | > 1000 | 17 | – | 100 to 300 | – | – | – |
| CCCC1CCCCC(=C\c2ccc(Cl)cc2)/C1=N/OCC(O)CN1CCCC1 (racemic) [Example 44, (R,S)-2-Propyl-7-(E)-(4-chlorophenylmethylene)-1-(E)-[2-hydroxy-3-(N-pyrrolidinylpropoxyimino)]-cycloheptane] | > 1000 | 10 | 50 to 200 | 100 to 300 | 1.6 | – | – |
| CN/C(=N/CCSCc1nc[nH]c1C)NC#N [Cimetidine, reference compound] | – | – | – | – | 100 to 200 | 0.3-0.6 | ED50 ([3]; 4 h): 59.1 mg/kg |
| CC(=NOCC(O)CNC(C)(C)C)C1CC1 (stereo not drawn) [Falintolol] | – | – | – | – | – | – | beta-adrenergic blocking activity [6]: exhibit beta-adrenergic blocking activity |
| CC(C)(C)NCC(O)CON=C1c2ccccc2-c2ccccc21 (stereo not drawn) [IPS-339] | – | – | – | – | – | – | beta-adrenergic blocking activity [6]: exhibit beta-adrenergic blocking activity |
| COc1ccc2[nH]c([S+]([O-])Cc3ncc(C)c(OC)c3C)nc2c1 (stereo not drawn) [Omeprazole, reference compound] | – | – | 3.9 | – | 4.5 | 0.9 | – |
| OC(CON=Cc1ccc(Cl)cc1)CN1CCN(c2ccccc2Cl)CC1 (stereo not drawn) [Peraclopon] | – | – | – | – | – | – | lipid level lowering [7]: lipid level lowering agent |
| COc1cccc(C=NOCC(O)CN2CCN(c3ccccc3OC)CC2)c1 (stereo not drawn) [Peradoxime] | – | – | – | – | – | – | hypotensive effect [8]: has a hypotensive effect |
| CN1CCN(CC(=O)N2c3ccccc3C(=O)Nc3cccnc32)CC1 [Pirenzepine, reference compound] | – | – | 7.9 | – | 18.6 | 0.4 | – |
| Sucralfate [reference compound] | – | – | – | – | – | – | Ethanol erosion ED50 ([5]; p.o., abs. ethanol): 69 mg/kg |
